Laboratory results as given in patent publication US20230075368A1, “IDENTIFICATION OF AN EGFR-BIN3 PATHWAY THAT ACTIVELY SUPPRESSES INVASION AND REDUCES TUMOR SIZE IN GLIOBLASTOMA” (The United States Govemment as represented by the …, priority 2020, published 2023).

Assays:
[1] = system: betacellulin; experiment: ELISA for BTC in supernatants; assay type: cell-based, human; details: tofacitinib 1 μM, 72 hours; GBM12 and GBM6
Experimental: Similar experiments were performed in GBM6 (FIG. 20D). […] Similar experiments were performed in GBM6 (FIG. 20F). […] The Western blot images are representative of three independent biological replicates. Actin served as loading control. Data are represented as mean±SEM from three independent experiments. * P<0.05, **P<0.01, *[…], unpaired two-tailed t-test.

[2] = system: orthotopic glioblastoma tumors (Mayo PDXs); experiment: Orthotopic glioblastoma xenotransplant model treated with tofacitinib; assay type: in vivo, mice
Experimental: 4 to 6 weeks old female athymic nude mice were purchased from Charles River Laboratories. Mayo PDXs were injected into the right corpus striatum of the brains of 6-8 week-old nude mice using a stereotactic frame. […] Kaplan-Maier survival curves were calculated using GraphPad Prism 7.0 software. Alzet Osmotic pumps were installed for brain delivery of EGF or vehicle in tumor bearing mice. To monitor the mice with orthotropic xenografts, MRI was performed at the Mouse MRI Core, Advanced Imaging Research Center, at UT Southwestern.
Knockdown efficiency of HB-EGF in GBM39 control shRNA (GBM39shCtrl) and HB-EGF shRNA (GBM39shHB-EGF_1, GBM39shHB-EGF_2) clones was confirmed by ELISA (FIG. 21I). […] The Western blot images are representative of three independent biological replicates. Actin served as loading control. Scale bars: […]. Data are represented as mean±SEM from three independent experiments. ***P<0.001, […], n.s. not significant, unpaired two-tailed t-test.

[3] = system: DOCK7 and BIN3; experiment: Co-immunoprecipitation of BIN3 and DOCK7; assay type: cell-based, human; details: 24 hours
Experimental: Cells were treated with 50 ng/ml EGF for 24 hours, BIN3 (sc-514396AC, Santa Cruz Biotechnology) or mouse IgG antibodies were incubated with whole cell lysates overnight at 4° C., and the mixtures were then incubated with 40 μl protein A/G slurry beads (Sigma) for 2 hours at 4° C. Beads were washed three times with lysis buffer, and immunoprecipitates were boiled in loading buffer for 5 min, subjected to SDS-PAGE followed by Coomassie stain. Bands were cut from the gel and submitted for Mass Spectrometry Facility, UTSW, Dallas. To identify BIN3 and DOCK7 complexes in PDXs upon EGF treatment, cell lysates were immunoprecipitated with DOCK7 antibody or BIN3 antibody, and analyzed by Western blot using BIN3 antibody.
Referring to FIG. 9A-S, BIN3 reduces invasion by interacting with DOCK7. Heat map of spectral counts of the top BIN3 interacting proteins identified by mass spectrometry in GBM12 treated with EGF (50 ng/ml) is shown in FIG. 9A. Western blot analysis of immunoprecipitated extracts from EGF-treated GBM12, GBM6, and GBM26 is illustrated in FIG. 9B. Cell lysates from cells treated with EGF (50 ng/ml) or control vehicle for 24 hours were immunoprecipitated by DOCK7 antibody, followed by Western blot for BIN3. Western blot analysis of BIN3 antibody immunoprecipitated extracts from GBM12, GBM6, and GBM26 24 hours after EGF or vehicle treatment is illustrated in FIG. 9C. […]

[4] = system: Met; experiment: Western blot of pMet and total Met; assay type: cell-based, human; details: HGF 20 ng/ml; GBM12 and GBM6
Experimental: Whole protein extracts from cells or tumor tissues were analyzed by western blot as previously described (Altieri et al. (2015) Surg. Technol. Int 27: 297-302). Mayo PDX cells were serum starved overnight. Following treatment for specific time, cells were harvested and lysed. The human glioblastoma tissues were ground in liquid nitrogen and then were lysed. EGFR (06-847) antibody was from Millipore. DOCK7 was from Proteintech (Rosemont, Ill.). pEGFR (2236), STAT3 (12640), pSTAT3 (9145), cdc42(4376), and RhoA (4695) antibodies were from Cell Signaling Technology (Danvers, Mass.). TGFα antibody was from R&D system. BIN3 (sc-514396) and (3-Actin (sc-47778) were from Santa Cruz Biotechnology (Dallas, Tex.).
Referring to FIG. 11A-E, HGF induces invasion in GBM12 and GBM6. […] Cells were seeded on Matrigel coated inserts for 24 hours in the absence or presence of HGF (20 ng/ml). A Western blot analysis of DOCK7 antibody immunoprecipitated extracts from GBM12 and GBM6 treated with HGF for 24 hours (20 ng/ml) is shown in FIG. 11C. A Western blot showing GTP-bound RhoA (RhoA-GTP) and total RhoA levels after HGF treatment for 24 hours in GBM12 and GBM6 is shown in FIG. 11D. A Western blot showing CDC42-GTP and total CDC42 levels after HGF treatment (20 ng/ml) for 24 hours in GBM12 and GBM6. The Western blot images are representative of three independent biological replicates. […]

[5] = GBM12V tumors, tofacitinib 50 mg/kg, oral gavage
[6] = orthotopic GBM39 with HBEGF silenced, tofacitinib treated

For `C[C@@H]1CCN(C(=O)CC#N)C[C@@H]1N(C)c1ncnc2[nH]ccc12` [tofacitinib], the upregulation of betacellulin [1] was “not found”, the survival benefit ([2]; GBM12TGFα tumors, tofacitinib 50 mg/kg, oral gavage) was “no additional benefit” and the survival [2, 5] was “significant improvement in survival”. The “tumor invasion (H&E, SMI-31)” value [2, 5] was “decreased invasion”, the “infiltration of surrounding normal tissue” value ([2]; GBM12 or GBM6 orthotopic model, 40 mg/kg/day for 3 weeks) was “do not infiltrate the surrounding normal tissue” and the survival ([2]; GBM12 or GBM6 orthotopic model, 40 mg/kg/day for 3 weeks, from one week after intracranial injection) was “prolong survival”. The “responsiveness of orthotopic tumors” value ([2]; GBM39 with HBEGF silenced vs. controls) was “more responsive”, the survival [2, 6] was “improved” and the tumor invasiveness [2, 6] was “less invasive”.

With “EGF: Recombinant human EGF (AF-100) from Peprotech; EGFR ligand” the “physical association between DOCK7 and BIN3” value ([3]; EGF 50 ng/ml, GBM12, GBM6, GBM26) was “significantly induced a physical association”.

With HGF: the ligand for Met the “association between BIN3 and DOCK7” value ([3]; HGF 20 ng/ml, GBM12 and GBM6) was “not detected” and the Met phosphorylation [4] was “increased”.
